Reference: article PMC4365076, “The phage growth limitation system in Streptomyces coelicolor A(3)2 is a toxin/antitoxin system, comprising enzymes with DNA methyltransferase, protein kinase and ATPase activity” (Virology, 2015)
Changes are numbered by the printed parent chain. Names may count otherwise.

Tests used:
PglX (PglX–His6) = target: T1, PglX (PglX–His6) (Streptomyces coelicolor, UniProt Q8CJM2); assay: 3H-methyl incorporation into DNA, scintillation counting; format: biochemical; conditions: 12 μM labelled compound, phage ϕC31 DNA co-substrate, 1 mM EDTA, pH 7.5, 30 °C; partially purified enzyme
T1 construct: NPPY motif at 378–381
T1 sequence (Q8CJM2 1-1210): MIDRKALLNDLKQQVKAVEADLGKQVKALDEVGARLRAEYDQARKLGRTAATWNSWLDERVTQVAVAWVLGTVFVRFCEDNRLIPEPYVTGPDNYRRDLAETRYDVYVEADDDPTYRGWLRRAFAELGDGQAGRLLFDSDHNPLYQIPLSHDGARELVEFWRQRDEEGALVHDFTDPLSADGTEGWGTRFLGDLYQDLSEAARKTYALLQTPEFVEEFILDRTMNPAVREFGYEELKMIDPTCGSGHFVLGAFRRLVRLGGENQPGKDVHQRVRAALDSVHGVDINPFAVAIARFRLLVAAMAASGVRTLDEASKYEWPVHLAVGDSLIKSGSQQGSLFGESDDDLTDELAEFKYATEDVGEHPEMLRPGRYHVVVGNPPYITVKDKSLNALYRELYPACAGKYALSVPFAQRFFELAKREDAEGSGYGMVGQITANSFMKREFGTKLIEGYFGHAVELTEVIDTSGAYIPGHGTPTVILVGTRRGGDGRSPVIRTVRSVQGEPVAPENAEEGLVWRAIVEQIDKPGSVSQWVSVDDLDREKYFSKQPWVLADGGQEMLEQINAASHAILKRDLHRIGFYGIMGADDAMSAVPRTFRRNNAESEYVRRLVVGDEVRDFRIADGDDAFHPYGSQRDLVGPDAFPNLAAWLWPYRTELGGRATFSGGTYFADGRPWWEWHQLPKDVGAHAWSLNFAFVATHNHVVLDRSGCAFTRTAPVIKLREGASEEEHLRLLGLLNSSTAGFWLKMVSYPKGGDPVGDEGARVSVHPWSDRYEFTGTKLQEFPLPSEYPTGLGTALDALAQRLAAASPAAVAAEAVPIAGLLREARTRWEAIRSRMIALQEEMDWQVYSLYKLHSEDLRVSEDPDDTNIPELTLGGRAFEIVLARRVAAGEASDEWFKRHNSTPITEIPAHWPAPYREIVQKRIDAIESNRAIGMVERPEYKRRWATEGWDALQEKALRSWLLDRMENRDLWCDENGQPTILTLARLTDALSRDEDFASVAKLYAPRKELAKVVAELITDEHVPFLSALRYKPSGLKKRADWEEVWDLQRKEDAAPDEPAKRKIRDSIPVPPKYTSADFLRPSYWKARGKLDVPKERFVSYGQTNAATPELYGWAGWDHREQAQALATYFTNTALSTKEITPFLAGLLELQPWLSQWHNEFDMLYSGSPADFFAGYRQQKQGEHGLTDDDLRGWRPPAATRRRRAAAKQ

PglY (His6–PglY) = target: T2, PglY (His6–PglY) (Streptomyces coelicolor, UniProt O86682); assay: inhibition of ATP hydrolysis, Pi release, malachite green; format: biochemical; conditions: 1–3 mM ADP-NP against 1–3 mM ATP; 30 °C, pH 8.0, 10 mM MgCl2
T2 construct: ~160 kDa band, MALDI-TOF identified; Walker A GSFGSGKS at 75–82
T2 sequence (O86682 1-1294): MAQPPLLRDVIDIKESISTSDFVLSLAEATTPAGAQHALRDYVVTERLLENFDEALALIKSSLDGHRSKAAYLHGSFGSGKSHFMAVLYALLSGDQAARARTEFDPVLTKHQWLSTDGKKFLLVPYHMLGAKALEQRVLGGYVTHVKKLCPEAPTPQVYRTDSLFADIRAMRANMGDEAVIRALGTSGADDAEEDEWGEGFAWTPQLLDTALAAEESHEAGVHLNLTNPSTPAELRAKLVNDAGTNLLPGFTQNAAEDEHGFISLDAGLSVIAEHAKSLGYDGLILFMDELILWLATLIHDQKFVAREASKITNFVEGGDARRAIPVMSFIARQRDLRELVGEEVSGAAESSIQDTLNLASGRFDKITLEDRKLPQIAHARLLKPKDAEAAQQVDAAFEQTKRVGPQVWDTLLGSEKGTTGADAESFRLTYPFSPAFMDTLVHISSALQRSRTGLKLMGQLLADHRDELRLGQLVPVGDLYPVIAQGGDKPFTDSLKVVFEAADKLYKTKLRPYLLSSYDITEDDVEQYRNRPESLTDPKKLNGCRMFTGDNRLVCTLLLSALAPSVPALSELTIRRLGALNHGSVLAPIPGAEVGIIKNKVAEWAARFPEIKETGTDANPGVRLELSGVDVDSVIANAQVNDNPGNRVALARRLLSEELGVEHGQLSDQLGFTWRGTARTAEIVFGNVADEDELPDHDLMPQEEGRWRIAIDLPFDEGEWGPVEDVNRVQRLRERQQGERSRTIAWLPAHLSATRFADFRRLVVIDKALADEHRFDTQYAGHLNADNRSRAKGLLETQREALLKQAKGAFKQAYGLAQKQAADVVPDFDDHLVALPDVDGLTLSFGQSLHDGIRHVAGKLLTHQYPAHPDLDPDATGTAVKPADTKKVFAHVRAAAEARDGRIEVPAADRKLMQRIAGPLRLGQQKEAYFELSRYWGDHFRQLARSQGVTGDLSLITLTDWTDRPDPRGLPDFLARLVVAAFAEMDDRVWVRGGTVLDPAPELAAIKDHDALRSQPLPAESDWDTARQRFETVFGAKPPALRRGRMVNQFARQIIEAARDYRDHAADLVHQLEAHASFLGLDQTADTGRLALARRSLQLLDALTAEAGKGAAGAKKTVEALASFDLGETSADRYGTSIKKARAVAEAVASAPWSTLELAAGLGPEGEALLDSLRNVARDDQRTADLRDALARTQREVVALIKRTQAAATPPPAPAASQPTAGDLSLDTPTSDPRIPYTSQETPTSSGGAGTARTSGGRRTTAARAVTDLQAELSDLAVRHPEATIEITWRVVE

[1] = substrate: Nc1ncnc2c1ncn2[C@@H]1O[C@H](COP(=O)(O)OP(=O)(O)OP(=O)(O)O)[C@@H](O)[C@H]1O; assay: Pi release, malachite green; format: biochemical, Streptomyces coelicolor; conditions: 30 °C, 40 mM HEPES pH 8.0, 10 mM MgCl2, 10 mM DTT, 0.1 mg/ml BSA

Molecule: C[S+](CC[C@H](N)C(=O)O)C[C@H]1O[C@@H](n2cnc3c(N)ncnc32)[C@H](O)[C@@H]1O (stereo partly shown) [AdoMet]
- 3H-methyl incorporation into DNA, scintillation counting (PglX (PglX–His6)): incorporation of label into TCA precipitable material was dependent on DNA addition

Molecule: Nc1ncnc2c1ncn2[C@@H]1O[C@H](COP(=O)(O)OP(=O)(O)NP(=O)(O)O)[C@@H](O)[C@H]1O [ADP-NP]
- inhibition of ATP hydrolysis, Pi release, malachite green (PglY (His6–PglY)): severely inhibited rate of hydrolysis of ATP, indicative of ADP-NP binding and inhibition of activity

B1: PglY (His6–PglY) (Streptomyces coelicolor A3(2)) (protein)
chain: T2 sequence (O86682 1-1294)
notes: ~160 kDa band, MALDI-TOF identified; Walker A GSFGSGKS at 75–82
- Km [1]: 0.5 mM

B2: PglY (His6–PglY) (Streptomyces coelicolor A3(2); K81A/S82A) (protein)
chain: T2 sequence (O86682 1-1294) with K81A, S82A
notes: as for B1
- Km ([1]; Walker A double mutant): 100 mM
